Measurements as given in US12048691B2 (SPERO THERAPEUTICS, INC., priority 2020, dated 2024).
Converted amounts (≈) assume the structure as drawn. Read-outs that look alike come from different tables or passages of the source.

Legend:
Format in all cases: cell-based
[1] = tested on: Enterobacterales (ENT); test: Broth microdilution against US UTI pathogens 2019-2020; conditions: for % susceptible; CLSI: cefuroxime: oral breakpoint
Description: (§1) This study assessed the in vitro activity of tebipenem and comparator agents against Enterobacterales (ENT) responsible for UTIs in the US during 2019-2020. A total of 3,576 ENT recovered from urine samples during the 2019-2020 STEWARD Surveillance Program were included in the study. Isolates were collected from medical centers in all 9 US Census Regions and were centrally tested for susceptibility by reference broth microdilution method. MIC interpretation was performed based on CLSI criteria.

[2] = tested on: E. coli; test: as above; conditions: E. coli (2,339); for % susceptible; CLSI: cefuroxime: oral breakpoint
Description: as §1

[3] = tested on: P. mirabilis; test: as above; conditions: P. mirabilis (235); for % susceptible; CLSI: cefuroxime: oral breakpoint
Description: as §1

[4] = tested on: K. pneumoniae; test: as above; conditions: K. pneumoniae (511); for % susceptible; CLSI: cefuroxime: oral breakpoint
Description: as §1

[5] = tested on: AmpC production in P. aeruginosa; test: AmpC induction (nitrocefin hydrolysis after drug exposure)
Description: (§2) AmpC induction was determined as follows. Baseline MIC values were determined by broth microdilution method, as described above, for 9 Gram-negative isolates with basal expression of ampC. These isolates were cultured overnight on blood agar plates. A standardized inoculum made from fresh overnight plate cultures was added to flasks containing 50 mL of Luria-Bertani (LB) broth and incubated by shaking at 37° C. to OD600 of 0.3. […] These cultures were incubated under shaking conditions. A 40 mL aliquot of bacterial cultures was sampled at time 0 and 2 hours after drug exposures. Each sample aliquot was harvested by centrifugation and the supernatant was discarded.
(§3) Protein crude extract preparations were made in 200 μL of BugBusterR (Novagen, Darmstadt, Germany) per manufacturer instructions and cell debris was removed by centrifugation. Protein concentrations were determined in each crude extract by standard methodologies.
(§4) AmpC induction was measured by the intensity of β-lactamase hydrolytic activity against 0.1 mM nitrocefin in 0.1 M phosphate buffer at pH 7.0 using spectrophotometry at 482 nm (Δ absorbance/minute/mg of protein). The drug exposure conditions that caused a >4-fold increase in hydrolysis activity compared to the baseline were subjected to postinduction experiments. Briefly, cells were grown under the same conditions as before and tested for susceptibility by broth microdilution.

[6] = tested on: AmpC production in Enterobacterales; test: as above; conditions: tebipenem/imipenem except for C. koseri and S. marcescens
Description: as §2, §3, §4

[7] = tested on: Enterobacterales overproducing AmpC; test: Broth microdilution susceptibility of isolates overexpressing AmpC
Description: (§5) Frozen-form broth microdilution panels were manufactured by JMI Laboratories and contained cation-adjusted Mueller-Hinton broth. Quality assurance was performed by sterility checks, colony counts, and testing CLSI recommended quality control reference strains.

[8] = tested on: P. aeruginosa isolates that overproduced AmpC; test: as above
Description: as §5

[9] = tested on: Vancomycin-susceptible Enterococcus faecalis; test: Broth microdilution against Gram-positive clinical isolates; conditions: E. faecalis; for MIC90: Enterococcus faecalis, 31 isolates
Description: (§6) The purpose of this study was to investigate the in vitro activity of tebipenem and comparator agents, including ertapenem and meropenem, against a recent collection of Gram-positive isolates associated with clinical infections. The susceptibility of 580 Gram-positive organisms were tested, including: Methicillin-susceptible Staphylococcus aureus (MSSA, 489 isolates), Methicillin-susceptible Staphylococcus epidermidis (MSSE, 31), other methicillin-susceptible coagulase-negative staphylococci (MSCONS, 29), and Vancomycin-susceptible Enterococcus faecalis (31). Bacterial species were identified by JMI Laboratories using standard microbiology methods and matrix-assisted laser desorption ionization-time of flight mass spectrometry (Bruker Daltonics, Bremen, Germany). The isolates were collected in 2018 and 2019 as part of the SENTRY surveillance program and selected to be representative of these species with 45.0% from the United States, 44.3% from Europe, 5.3% from the Asia-Pacific region, and 5.3% from Latin America. Isolates are primarily from pneumonia in hospitalized patients (498 isolates; 85.9%), urinary tract infections (42 isolates; 7.2%), and bloodstream infections (38 isolates; 6.6%). Isolates were tested in a central laboratory (JMI Laboratories) for antimicrobial susceptibility using the CLSI M07 (2018) reference broth microdilution method. JMI Laboratories produced frozen-form 96-well panels and used cation-adjusted Mueller-Hinton broth (CA-MHB) as the testing medium. All categorical interpretations used CLSI M100 (2021) and EUCAST v10.0 (2021) breakpoint criteria, where published. Quality control organisms include Escherichia coli ATCC 25922, Escherichia coli ATCC 35218, Enterococcus faecalis ATCC 29212, Pseudomonas aeruginosa ATCC 27853, and Staphylococcus aureus ATCC 29213 were tested concurrently with clinical isolates.

[10] = tested on: E. coli; test: Susceptibility of E. coli from urinary tract infections, 18 EU countries 2020 (STEWARD)
Description: The study assessed the prevalence of resistance and evaluated the activity of oral tebipenem (TBP) and comparators against EC from urinary tract infections.
Results were interpreted using EUCAST criteria. […] ESBL phenotypes were determined by CLSI criteria and sequenced to identify CTX-M-15 genotype and clonal complex ST131.

[11] = tested on: Methicillin-susceptible Staphylococcus epidermidis (MSSE); test: Broth microdilution against Gram-positive clinical isolates
Description: as §6

[12] = tested on: Methicillin-susceptible Staphylococcus aureus (MSSA); test: as above
Description: as §6

[13] = tested on: other methicillin-susceptible coagulase-negative staphylococci (MSCONS); test: as above
Description: The purpose of this study was to investigate the in vitro activity of tebipenem and comparator agents, including ertapenem and meropenem, against a recent collection of Gram-positive isolates associated with clinical infections. The susceptibility of 580 Gram-positive organisms were tested, including: […] Bacterial species were identified by JMI Laboratories using standard microbiology methods and matrix-assisted laser desorption ionization-time of flight mass spectrometry (Bruker Daltonics, Bremen, Germany). […] Isolates were tested in a central laboratory (JMI Laboratories) for antimicrobial susceptibility using the CLSI […] (2018) reference broth microdilution method. JMI Laboratories produced frozen-form 96-well panels and used cation-adjusted Mueller-Hinton broth (CA-MHB) as the testing medium. […] Quality control organisms include Escherichia coli ATCC 25922, Escherichia coli ATCC 35218, Enterococcus faecalis ATCC 29212, Pseudomonas aeruginosa ATCC 27853, and Staphylococcus aureus ATCC 29213 were tested concurrently with clinical isolates.

[14] = tested on: methicillin-susceptible staphylococci, including MSSA, MSSE, and other MSCONS; test: Broth microdilution against Gram-positive clinical isolates, summary
Description: as §6, with “JMI Laboratories produced frozen-form 96-well panels and used cation-adjusted Mueller-Hinton broth (CA-MHB) as the testing medium. All categorical interpretations used CLSI M100 (2021) and EUCAST v10.0 (2021) breakpoint criteria, where published. Quality control organisms include Escherichia coli ATCC 25922, Escherichia coli ATCC 35218, Enterococcus faecalis ATCC 29212, Pseudomonas aeruginosa ATCC 27853, and Staphylococcus aureus ATCC 29213 were tested concurrently with clinical isolates.” left out

[15] = Staphylococcus epidermidis, 31 isolates
[16] = Staphylococcus aureus, 489 isolates
[17] = P. aeruginosa overproducing AmpC

| Compound | % susceptible; CLSI ([1]; All (3,567)) | % susceptible; CLSI [2] | % susceptible; CLSI [3] | % susceptible; CLSI [4] | effect of exposure on production of AmpC [5] | effect of exposure on production of AmpC [6] | CLSI %1 ([7]; Enterobacterales (36)) [%] | CLSI % R ([7]; Enterobacterales (36)) [%] | CLSI % S ([7]; Enterobacterales (36)) [%] | CLSI % R ([8]; P. aeruginosa (32)) [%] | CLSI % S ([8]; P. aeruginosa (32)) [%] | prevalence of resistant phenotype ([10]; all E. coli) [%] | MIC90 [9] [µg/mL] | MIC50 [7] [µg/mL] | MIC90 [7] [µg/mL] | MIC50 ([7]; Enterobacterales (36)) [μ/ml] | MIC90 ([7]; Enterobacterales (36)) [μ/ml] | MIC range ([7]; Enterobacterales (36)) [μ/ml] | MIC range ([8]; P. aeruginosa (32)) [μ/ml] | susceptibility (% S) [13] [%] | also measured |
| --- | --- | --- | --- | --- | --- | --- | --- | --- | --- | --- | --- | --- | --- | --- | --- | --- | --- | --- | --- | --- | --- |
| CC(C)(O/N=C(\C(=O)N[C@@H]1C(=O)N2C(C(=O)[O-])=C(C[n+]3ccccc3)CS[C@H]12)c1csc(N)n1)C(=O)O [Ceftazidime] | (88.1%) | (89.3) % | (98.7) % | (86.1) % | increased the production of AmpC | did not seem to affect production of AmpC | 11.4 | 60.0 | 28.6 | 71.9 | 15.6 |  |  |  |  |  |  |  |  |  | susceptibility ([1]; against ENT, EC, and KPN): 86.1-89.3%; MIC90 ([1]; against ENT, EC, and KPN, read-out: MIC90): 8 to 16 µg/mL (≈ 14.6 to 29.3 µM); % susceptible; CLSI ([3]; listed as CAZ): 98.7%; MIC50 ([7]; Enterobacterales (36), read-out: MIC50): 32 µg/mL (≈ 58.5 µM); MIC90 ([7]; Enterobacterales (36), read-out: MIC90): > 32 µg/mL |
| C[C@H]1COc2c(N3CCN(C)CC3)c(F)cc3c(=O)c(C(=O)O)cn1c23 [Levofloxacin, levofloxacin] | (79.4) % | (75.7) % | (71.8) % | (87.1) % |  |  |  |  |  |  |  | 20.6 |  |  |  |  |  |  |  |  | Susceptibility rate [9]: 80.6% |
| C[C@@H](O)[C@H]1C(=O)N2C(C(=O)O)=C(S[C@@H]3CN[C@H](C(=O)N(C)C)C3)[C@H](C)[C@H]12 [Meropenem, meropenem] |  |  |  |  |  |  | 0.0 | 0.0 | 100.0 | 0.0 | 100.0 |  | > 1 | 0.03 (≈ 0.0782 µM) | 0.12 (≈ 0.313 µM) | 0.03 | 0.12 | ≤0.015 to 1 | 0.12 to 2 |  | CLSI %1 ([8]; P. aeruginosa (32)): 0.0%; MIC90 ([10]; Escherichia coli, all E. coli (764) from UTIs): 0.03 µg/mL (≈ 0.0782 µM); Susceptibility rate ([10]; all E. coli, EUCAST criteria): 100% |
| C[C@@H](O)[C@H]1C(=O)N2C(C(=O)O)=C(SC3CN(C4=NCCS4)C3)[C@H](C)[C@H]12 [Tebipenem, tebipenem] |  |  |  |  | increased the production of AmpC | increased production of AmpC |  |  |  |  |  |  | 1 (≈ 2.61 µM) | 0.03 (≈ 0.0782 µM) | 0.25 (≈ 0.652 µM) | 0.03 | 0.25 | 0.015 to 1 | 2 to 8 |  | MIC90 fold lower than ertapenem [11]: 32 fold; MIC50 [11, 15]: 0.008 µg/mL (≈ 0.0209 µM); MIC90 [11, 15]: 0.015 µg/mL (≈ 0.0391 µM); MIC90 fold lower than ertapenem [9]: 16 fold; MIC90 fold lower than meropenem [9]: at least 2 fold; concentration inhibiting all isolates [9]: ≤ 1 mg/L; MIC90 fold lower than ertapenem [12]: 8 fold; MIC50 [12, 16]: 0.015 µg/mL (≈ 0.0391 µM); MIC90 [12, 16]: 0.03 µg/mL (≈ 0.0782 µM); MIC90 ([1]; against ENT, EC, and KPN): 0.015 to 0.06 µg/mL (≈ 0.0391 to 0.156 µM); MIC90 fold lower than ertapenem [13]: 32 fold; MIC50 ([13]; 29 isolates): 0.015 µg/mL (≈ 0.0391 µM); MIC90 ([13]; 29 isolates): 0.03 µg/mL (≈ 0.0782 µM); MIC50 and MIC90 values, range over species groups [14]: 0.015 to 0.03 µg/mL; activity fold greater than ertapenem [14]: 16- to 32 fold; concentration inhibiting all isolates ([7]; Enterobacterales overproducing AmpC): ≤ 1 µg/mL; MIC50 [8, 17]: 4 µg/mL (≈ 10.4 µM); MIC90 [8, 17]: 4 µg/mL (≈ 10.4 µM) |
| CC[C@H]1OC(=O)[C@H](C)[C@@H](O[C@H]2C[C@@](C)(OC)[C@@H](O)[C@H](C)O2)[C@H](C)[C@@H](O[C@@H]2O[C@H](C)C[C@H](N(C)C)[C@H]2O)[C@](C)(O)C[C@@H](C)C(=O)[C@H](C)[C@@H](O)[C@]1(C)O [erythromycin] |  |  |  |  |  |  |  |  |  |  |  |  |  |  |  |  |  |  |  | 54.8 | Susceptibility rate [11]: 54.8%; Susceptibility rate [12]: 65.6% |
| trimethoprim-sulfamethoxazole [TMP-SMX] | (73.9) % | (69.2) % |  | (79.8) % |  |  |  |  |  |  |  | 30.1 |  |  |  |  |  |  |  | 83.9 | MIC50 ([1]; All (3,567)): ≤ 120 µg/mL; MIC90 ([1]; All (3,567)): > 4000 µg/mL; MIC50 [2]: ≤ 120 µg/mL; MIC90 [2]: > 4000 µg/mL; MIC50 [3]: ≤ 120 µg/mL; MIC90 [3]: > 4000 µg/mL; MIC50 [4]: ≤ 120 µg/mL; MIC90 [4]: > 4000 µg/mL |
